Earlier results on one molecule are cited in US20160075995A1, “SWEAT GLAND-DERIVED STEM CELLS AND METHODS OF USE” (priority 2014, published 2016).

The conditions of data set [1]: DMSO.
For data set [2] the following is noted: published reports.

SMILES strings stand for the structures.

Turning to `c1cc(-c2cnn3cc(-c4ccc(OCCN5CCCCC5)cc4)cnc23)ccn1` [dorsomorphin], in data set [1], the solubility entry is listed as “soluble in DMSO”. Also, in data set [2], the toxicity result is “low toxicity”.
